The structures appear in SMILES notation.

One may read the IC50 as the midpoint of a concentration-inhibition curve.

For assay [1], the target named is Recombinant G2019S-LRRK2 protein (Homo sapiens (Human), UniProt Q5S007, G2019S). Kind of assay: LRRK2 kinase activity, LanthaScreen TR-FRET assay (G2019S). In kind it is biochemical. The conditions noted are these: LRRKtide 400 nM, 25 μM ATP, 60 min. The protocol: (§1) LRRK2 kinase activity was measured using a LanthaScreen™ Kinase Activity Assay from ThermoFisher Scientific. Recombinant wild type or G2019S-LRRK2 protein (Life Technologies, PR8604B or PV4881, respectively), was incubated with a fluorescein-labeled peptide substrate called LRRKtide that is based upon ezrin/radixin/moesin (ERM) (Life Technologies, PV4901) in the presence of ATP and serially diluted compound. […] Compound-dependent inhibition of the TR-FRET signal was used to generate a concentration-response curve for IC50 determination.
Recombinant G2019S-LRRK2 protein, sequence (Q5S007 whole entry G2019S): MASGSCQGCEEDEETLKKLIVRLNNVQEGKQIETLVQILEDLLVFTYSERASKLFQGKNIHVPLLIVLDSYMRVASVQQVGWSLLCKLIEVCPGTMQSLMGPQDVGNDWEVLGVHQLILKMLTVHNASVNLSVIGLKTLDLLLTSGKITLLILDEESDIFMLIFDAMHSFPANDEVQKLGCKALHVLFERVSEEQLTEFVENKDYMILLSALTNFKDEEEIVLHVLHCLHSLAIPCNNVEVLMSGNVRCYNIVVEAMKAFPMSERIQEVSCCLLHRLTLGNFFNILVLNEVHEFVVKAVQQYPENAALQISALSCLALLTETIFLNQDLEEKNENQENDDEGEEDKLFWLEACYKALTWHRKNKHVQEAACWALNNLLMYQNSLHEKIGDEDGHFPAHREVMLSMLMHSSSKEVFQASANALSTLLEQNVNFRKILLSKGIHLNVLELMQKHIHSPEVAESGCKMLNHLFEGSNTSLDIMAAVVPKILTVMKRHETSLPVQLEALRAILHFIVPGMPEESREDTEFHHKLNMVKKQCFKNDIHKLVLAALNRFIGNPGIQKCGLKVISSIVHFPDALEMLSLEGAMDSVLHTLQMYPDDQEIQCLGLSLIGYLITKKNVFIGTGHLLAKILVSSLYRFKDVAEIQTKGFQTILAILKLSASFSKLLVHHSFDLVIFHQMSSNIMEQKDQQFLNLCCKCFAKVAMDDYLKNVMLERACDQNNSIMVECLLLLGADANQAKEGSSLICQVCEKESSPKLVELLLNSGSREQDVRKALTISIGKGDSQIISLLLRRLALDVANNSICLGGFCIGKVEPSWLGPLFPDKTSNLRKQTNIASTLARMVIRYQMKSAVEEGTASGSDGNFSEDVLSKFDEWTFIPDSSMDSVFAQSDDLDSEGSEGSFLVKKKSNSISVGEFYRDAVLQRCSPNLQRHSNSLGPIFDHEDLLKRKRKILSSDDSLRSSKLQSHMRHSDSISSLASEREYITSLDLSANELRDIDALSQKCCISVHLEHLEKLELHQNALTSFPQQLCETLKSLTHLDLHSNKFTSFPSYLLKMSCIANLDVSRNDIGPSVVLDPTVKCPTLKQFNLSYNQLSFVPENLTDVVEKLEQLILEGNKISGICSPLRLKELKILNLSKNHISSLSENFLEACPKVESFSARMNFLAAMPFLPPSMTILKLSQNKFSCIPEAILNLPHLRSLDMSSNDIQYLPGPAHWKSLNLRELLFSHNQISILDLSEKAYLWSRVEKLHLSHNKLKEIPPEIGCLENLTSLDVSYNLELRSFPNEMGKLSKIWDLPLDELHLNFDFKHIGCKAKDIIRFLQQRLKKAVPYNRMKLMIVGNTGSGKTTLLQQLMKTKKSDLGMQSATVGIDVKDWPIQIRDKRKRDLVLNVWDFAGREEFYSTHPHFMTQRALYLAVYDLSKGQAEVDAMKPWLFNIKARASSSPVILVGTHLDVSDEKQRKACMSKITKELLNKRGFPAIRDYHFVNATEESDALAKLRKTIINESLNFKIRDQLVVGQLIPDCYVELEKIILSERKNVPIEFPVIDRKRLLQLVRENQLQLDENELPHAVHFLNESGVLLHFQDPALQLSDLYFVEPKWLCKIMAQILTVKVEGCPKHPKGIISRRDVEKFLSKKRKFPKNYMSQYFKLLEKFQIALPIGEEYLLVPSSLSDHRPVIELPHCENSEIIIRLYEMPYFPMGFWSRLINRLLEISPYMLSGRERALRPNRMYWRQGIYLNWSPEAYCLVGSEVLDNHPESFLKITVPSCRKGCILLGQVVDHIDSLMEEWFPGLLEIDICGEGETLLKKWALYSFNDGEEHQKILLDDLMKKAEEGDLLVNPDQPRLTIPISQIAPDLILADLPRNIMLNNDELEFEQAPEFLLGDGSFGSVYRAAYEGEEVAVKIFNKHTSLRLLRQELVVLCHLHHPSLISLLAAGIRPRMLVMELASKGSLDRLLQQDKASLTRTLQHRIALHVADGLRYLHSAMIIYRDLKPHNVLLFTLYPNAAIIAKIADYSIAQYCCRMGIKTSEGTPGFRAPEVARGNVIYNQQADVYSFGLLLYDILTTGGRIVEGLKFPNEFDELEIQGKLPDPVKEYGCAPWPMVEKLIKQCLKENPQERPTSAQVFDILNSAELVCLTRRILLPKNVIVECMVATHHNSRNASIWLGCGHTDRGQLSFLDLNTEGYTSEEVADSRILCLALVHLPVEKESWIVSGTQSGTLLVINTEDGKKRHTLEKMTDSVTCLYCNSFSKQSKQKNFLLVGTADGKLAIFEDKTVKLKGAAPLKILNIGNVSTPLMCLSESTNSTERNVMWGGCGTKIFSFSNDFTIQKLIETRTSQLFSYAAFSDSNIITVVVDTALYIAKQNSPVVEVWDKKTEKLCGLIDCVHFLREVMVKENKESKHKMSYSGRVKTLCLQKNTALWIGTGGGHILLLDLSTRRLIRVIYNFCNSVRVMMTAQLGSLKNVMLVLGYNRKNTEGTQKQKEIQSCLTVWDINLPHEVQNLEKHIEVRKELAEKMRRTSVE
(§2) After 60 min incubation at room temperature, the reaction was stopped by addition of 10 μL of 2× stop solution containing a final concentration of 2 nM anti-pERM antibody and 10 mM EDTA. […] The ratio of the 520 nm and 495 nm emission was used to analyze the data.

Assay [2] concerns the target Recombinant wild type LRRK2 protein (Homo sapiens (Human), UniProt Q5S007). Kind of assay: LRRK2 kinase activity, LanthaScreen TR-FRET assay (wild type). Conditions: LRRKtide 400 nM, 25 μM ATP, 60 min; read-out: LRRK2 WT IC50. The format is biochemical. The protocol:
as §1, §2
For orientation: Time-resolved FRET reads energy transfer from a long-lived donor to a nearby acceptor.

Recombinant wild type LRRK2 protein, sequence (Q5S007 whole entry): as the sequence (Q5S007 whole entry G2019S) above, with S2019G counted along it

In the case of `Cc1c(C(=O)Nc2ccc3[nH]nc(C)c3c2)nc(Br)c(C#N)c1C` [Example 302, 6-Bromo-5-cyano-3,4-dimethyl-N-(3-methyl-1H-indazol-5-yl)picolinamide], the IC50 in assay [1] and in assay [2] was under 100 nM in each case.
In the case of `Cc1nc(C#N)cnc1C(=O)Nc1ccc2[nH]nc(-c3ccoc3)c2c1` [Example 145, 5-Cyano-N-(3-(furan-3-yl)-1H-indazol-5-yl)-3-methylpyrazine-2-carboxamide], the IC50 in assay [1] and in assay [2] was under 100 nM in each case.
Consider `Cc1cc(C#N)cnc1C(=O)Nc1ccc2[nH]nc(-c3ccc(=O)n(C)c3)c2c1` [Example 151, 5-Cyano-3-methyl-N-(3-(1-methyl-6-oxo-1,6-dihydropyridin-3-yl)-1H-indazol-5-yl)picolinamide], for which the IC50 in assay [1] was under 100 nM; in assay [2], 100 to 1000 nM.
For `N#Cc1cccc(C(=O)Nc2ccc3[nH]nc(-c4ccoc4)c3c2)n1` [Example 127, 6-Cyano-N-(3-(furan-3-yl)-1H-indazol-5-yl)picolinamide] the same measures were under 100 nM and under 100 nM.
For `N#Cc1ccc(C(=O)Nc2ccc3[nH]nc(-c4ccoc4)c3c2)c(F)c1` [Example 3, 4-Cyano-2-fluoro-N-(3-(furan-3-yl)-1H-indazol-5-yl)benzamide] the same measures were under 100 nM and under 100 nM.
For `Cc1nc(C(=O)Nc2ccc3[nH]nc(C4CC4)c3c2)c(C)c(C)c1C#N` [Example 305, 5-Cyano-N-(3-cyclopropyl-1H-indazol-5-yl)-3,4,6-trimethylpicolinamide] the same measures were under 100 nM and 100 to 1000 nM.
On to `CC(C)c1c(C#N)cccc1C(=O)Nc1ccc2[nH]nc(-c3cnco3)c2c1` [Example 225, 3-Cyano-2-isopropyl-N-(3-(oxazol-5-yl)-1H-indazol-5-yl)benzamide], for which the half-inhibitory concentration (IC50) in assay [1] and in assay [2] was under 100 nM each time.
Turning to `Cc1cc(C#N)cnc1C(=O)Nc1ccc2[nH]nc(-c3cncc(Cl)c3)c2c1` [Example 121, N-(3-(5-Chloropyridin-3-yl)-1H-indazol-5-yl)-5-cyano-3-methylpicolinamide], the IC50 in assay [1] was under 100 nM; in assay [2] it was 100 to 1000 nM.
For `Cc1ccc(-c2n[nH]c3ccc(NC(=O)c4ncc(C#N)cc4C)cc23)cn1` [Example 55, 5-Cyano-3-methyl-N-(3-(6-methylpyridin-3-yl)-1H-indazol-5-yl)picolinamide] the same measures were under 100 nM and 100 to 1000 nM.
`Cc1cc(C#N)nnc1C(=O)Nc1ccc2[nH]nc(-c3ccoc3)c2c1` [Example 162, 6-Cyano-N-(3-(furan-3-yl)-1H-indazol-5-yl)-4-methylpyridazine-3-carboxamide]: the IC50 in assay [1] is under 100 nM; in assay [2], 100 to 1000 nM.
For the compound `Cc1c(C#N)ccc(F)c1C(=O)Nc1ccc2[nH]nc(-c3ccoc3)c2c1` [Example 134, 3-Cyano-6-fluoro-N-(3-(furan-3-yl)-1H-indazol-5-yl)-2-methylbenzamide], the IC50 in assay [1] and in assay [2] was under 100 nM each time.
In the case of `Cc1c(C#N)cnc(C(=O)Nc2ccc3[nH]nc(-c4ccncn4)c3c2)c1C` [Example 230, 5-Cyano-3,4-dimethyl-N-(3-(pyrimidin-4-yl)-1H-indazol-5-yl)picolinamide], the IC50 was under 100 nM in assay [1] and 100 to 1000 nM in assay [2].
Take `Cc1ccc(C#N)c(C)c1C(=O)Nc1ccc2[nH]nc(-c3cnn(C(F)F)c3)c2c1` [Example 193, 3-Cyano-N-(3-(1-(difluoromethyl)-1H-pyrazol-4-yl)-1H-indazol-5-yl)-2,6-dimethylbenzamide]: the IC50 in assay [1] and in assay [2] was under 100 nM each time.
Take `Cc1ccc(C#N)c(F)c1C(=O)Nc1ccc2[nH]nc(-c3cnco3)c2c1` [Example 203, 3-Cyano-2-fluoro-6-methyl-N-(3-(oxazol-5-yl)-1H-indazol-5-yl)benzamide]: the IC50 in assay [1] and in assay [2] was under 100 nM throughout.
In the case of `C=Cc1nc(C(=O)Nc2ccc3[nH]nc(C4CC4)c3c2)c(C)c(C)c1C#N` [Example 332, 5-Cyano-N-(3-cyclopropyl-1H-indazol-5-yl)-3,4-dimethyl-6-vinylpicolinamide], the values for the IC50 in assay [1] and in assay [2] were under 100 nM and 100 to 1000 nM, respectively.
On the same counts, the results for `COc1cc(-c2n[nH]c3ccc(NC(=O)c4ncc(C#N)cc4C)cc23)ccn1` [Example 48, 5-Cyano-N-(3-(2-methoxypyridin-4-yl)-1H-indazol-5-yl)-3-methylpicolinamide] are under 100 nM and 100 to 1000 nM.
For `Cc1ccc(-c2n[nH]c3ccc(NC(=O)c4ncc(C#N)cc4C)cc23)cc1` [Example 56, 5-Cyano-3-methyl-N-(3-(p-tolyl)-1H-indazol-5-yl)picolinamide] the same measures were under 100 nM and 100 to 1000 nM.
For `Cc1cc(C#N)cnc1C(=O)Nc1ccc2[nH]nc(-c3cncc(OC(C)C)c3)c2c1` [Example 109, 5-Cyano-N-(3-(5-isopropoxypyridin-3-yl)-1H-indazol-5-yl)-3-methylpicolinamide], the IC50 was under 100 nM in assay [1] and 100 to 1000 nM in assay [2].
On the same counts, the results for `Cc1cc(C#N)cnc1C(=O)Nc1ccc2[nH]nc(-c3cnn(C)c3)c2c1` [Example 57, 5-Cyano-3-methyl-N-(3-(1-methyl-1H-pyrazol-4-yl)-1H-indazol-5-yl)picolinamide] are under 100 nM and under 100 nM.
On the same counts, the results for `COc1n[nH]c2ccc(NC(=O)c3nc(Br)c(C#N)c(C)c3C)cc12` [Example 329, 6-Bromo-5-cyano-N-(3-methoxy-1H-indazol-5-yl)-3,4-dimethylpicolinamide] are under 100 nM and under 100 nM.
On the same counts, the results for `Cc1cc(C#N)cc(C(=O)Nc2ccc3[nH]nc(-c4ccoc4)c3c2)n1` [Example 78, 4-Cyano-N-(3-(furan-3-yl)-1H-indazol-5-yl)-6-methylpicolinamide] are under 100 nM and 100 to 1000 nM.
For the compound `COc1cc(C#N)cc(C)c1C(=O)Nc1ccc2[nH]nc(-c3cnco3)c2c1` [Example 208, 4-Cyano-2-methoxy-6-methyl-N-(3-(oxazol-5-yl)-1H-indazol-5-yl)benzamide], the 50% inhibitory concentration (IC50) in assay [1] and in assay [2] was under 100 nM throughout.
Regarding `Cc1c(C#N)cnc(C(=O)Nc2ccc3[nH]nc(/C=C/C(F)(F)F)c3c2)c1C` [Example 266, (E)-5-Cyano-3,4-dimethyl-N-(3-(3,3,3-trifluoroprop-1-en-1-yl)-1H-indazol-5-yl)picolinamide], the results for the IC50 in assay [1] and in assay [2] were under 100 nM and 100 to 1000 nM, respectively.
On the same counts, the results for `Cc1n[nH]c2ccc(NC(=O)c3ncc(C#N)cc3C(C)C)cc12` [Example 294, 5-Cyano-3-isopropyl-N-(3-methyl-1H-indazol-5-yl)picolinamide] are 100 to 1000 nM and 1000 to 10000 nM.
On the same counts, the results for `Cc1cc(C#N)cnc1C(=O)Nc1ccc2[nH]nc(-c3cnn(C)c3C)c2c1` [Example 123, 5-Cyano-N-(3-(1,5-dimethyl-1H-pyrazol-4-yl)-1H-indazol-5-yl)-3-methylpicolinamide] are under 100 nM and 100 to 1000 nM.
For `N#Cc1cnc(C(=O)Nc2ccc3[nH]nc(-c4cnco4)c3c2)c(Cl)c1` [Example 318, 3-Chloro-5-cyano-N-(3-(oxazol-5-yl)-1H-indazol-5-yl)picolinamide] the same measures were under 100 nM and under 100 nM.
Consider `N#Cc1ccc(C(=O)Nc2ccc3[nH]nc(-c4ccoc4)c3c2)cn1` [Example 9, 6-Cyano-N-(3-(furan-3-yl)-1H-indazol-5-yl)nicotinamide], for which the half-inhibitory concentration (IC50) in assay [1] is under 100 nM; in assay [2], 100 to 1000 nM.
On the same counts, the results for `Cc1c(C#N)cnc(C(=O)Nc2ccc3[nH]nc(-c4cncs4)c3c2)c1C` [Example 227, 5-Cyano-3,4-dimethyl-N-(3-(thiazol-5-yl)-1H-indazol-5-yl)picolinamide] are under 100 nM and under 100 nM.
On the same counts, the results for `COCc1n[nH]c2ccc(NC(=O)c3ncc(C#N)c(C)c3C)cc12` [Example 264, 5-Cyano-N-(3-(methoxymethyl)-1H-indazol-5-yl)-3,4-dimethylpicolinamide] are 100 to 1000 nM and 1000 to 10000 nM.
On the same counts, the results for `Cc1cc(C#N)cnc1C(=O)Nc1ccc2[nH]nc(-c3cncc(C#N)c3)c2c1` [Example 42, 5-Cyano-N-(3-(5-cyanopyridin-3-yl)-1H-indazol-5-yl)-3-methylpicolinamide] are under 100 nM and 100 to 1000 nM.
As for `C=C(C)c1c(C#N)cccc1C(=O)Nc1ccc2[nH]nc(C)c2c1` [Example 274, 3-Cyano-N-(3-methyl-1H-indazol-5-yl)-2-(prop-1-en-2-yl)benzamide], the IC50 is under 100 nM in assay [1] and 1000 to 10000 nM in assay [2].
On the same counts, the results for `Cc1nc(C(=O)Nc2ccc3[nH]nc(-c4cnn(C(F)F)c4)c3c2)c(C)c(C)c1C#N` [Example 185, 5-Cyano-N-(3-(1-(difluoromethyl)-1H-pyrazol-4-yl)-1H-indazol-5-yl)-3,4,6-trimethylpicolinamide] are under 100 nM and under 100 nM.
On the same counts, the results for `N#Cc1ccnc(C(=O)Nc2ccc3[nH]nc(-c4ccoc4)c3c2)n1` [Example 132, 4-Cyano-N-(3-(furan-3-yl)-1H-indazol-5-yl)pyrimidine-2-carboxamide] are under 100 nM and under 100 nM.
As for `Cc1cc(C#N)cnc1C(=O)Nc1ccc2[nH]nc(-c3ccoc3)c2n1` [Example 105, 5-Cyano-N-(3-(furan-3-yl)-1H-pyrazolo[4,3-b]pyridin-5-yl)-3-methylpicolinamide], the IC50 in assay [2] lay within 100 to 1000 nM.

Source of the values: patent US11427558B1, “Indazoles and azaindazoles as LRRK2 inhibitors” (ESCAPE Bio, Inc., priority 2019, dated 2022).
